Test results: PMC10546487 (Journal of medicinal chemistry, 2022)

These molecules were tested against MOR (Mus musculus, UniProt P42866) (assay: Radioligand competition binding assay, MOR). Conditions: ratio of Ki values DOR/MOR.
Chain of MOR (P42866 whole entry): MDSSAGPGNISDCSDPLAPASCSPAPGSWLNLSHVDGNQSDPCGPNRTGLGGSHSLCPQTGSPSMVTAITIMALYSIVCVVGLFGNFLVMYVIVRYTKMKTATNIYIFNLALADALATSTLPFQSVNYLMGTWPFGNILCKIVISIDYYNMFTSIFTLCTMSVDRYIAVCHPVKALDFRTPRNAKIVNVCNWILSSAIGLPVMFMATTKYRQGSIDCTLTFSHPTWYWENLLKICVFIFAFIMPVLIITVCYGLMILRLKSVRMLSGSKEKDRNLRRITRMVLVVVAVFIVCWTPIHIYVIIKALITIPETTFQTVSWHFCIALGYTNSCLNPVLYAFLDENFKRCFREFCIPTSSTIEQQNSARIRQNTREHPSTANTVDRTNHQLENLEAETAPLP
Cl.O=Cc1c[nH]c2c(C(=O)N[C@@H]3CC[C@@]4(O)[C@H]5Cc6ccc(O)c7c6[C@@]4(CCN5CC4CC4)[C@H]3O7)cccc12 [Compound 10, 17-Cyclopropylmethyl-3,14β-dihydroxy-4,5α-epoxy-6β-(3-formyl-indole-7-carboxamido)morphinan] was tested, and the “Selectivity δ/μ” value was 35.1.
N#Cc1cc2cccc(C(=O)N[C@H]3CC[C@@]4(O)[C@H]5Cc6ccc(O)c7c6[C@@]4(CCN5CC4CC4)[C@H]3O7)c2[nH]1 [Compound 20, 17-Cyclopropylmethyl-3,14β-dihydroxy-4,5α-epoxy-6α-(2-cyano-indole-7-carboxamido)morphinan] was tested, and the “Selectivity δ/μ” value was 12.2.

The molecules below were run against DOR (Mus musculus, UniProt P32300) (assay: Radioligand competition binding assay, DOR). Conditions: not given.
Chain of DOR (P32300 whole entry): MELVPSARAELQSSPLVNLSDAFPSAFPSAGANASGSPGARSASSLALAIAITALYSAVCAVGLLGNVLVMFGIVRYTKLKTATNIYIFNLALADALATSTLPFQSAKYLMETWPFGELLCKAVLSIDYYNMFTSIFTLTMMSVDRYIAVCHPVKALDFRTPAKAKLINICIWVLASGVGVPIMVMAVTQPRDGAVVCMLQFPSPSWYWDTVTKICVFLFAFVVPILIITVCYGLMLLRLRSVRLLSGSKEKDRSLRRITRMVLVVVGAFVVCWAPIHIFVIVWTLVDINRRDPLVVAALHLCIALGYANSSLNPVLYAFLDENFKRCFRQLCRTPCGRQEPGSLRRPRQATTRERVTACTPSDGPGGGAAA
O=C(N[C@@H]1CC[C@@]2(O)[C@H]3Cc4ccc(O)c5c4[C@@]2(CCN3CC2CC2)[C@H]1O5)c1cccc2cc(Br)[nH]c12 [Compound 1, 17-Cyclopropylmethyl-3,14β-dihydroxy-4,5α-epoxy-6β-(2-bromo-indole-7-carboxamido)morphinan] gave a Ki of 3.04 ± 0.27 nM.
O=C(N[C@@H]1CC[C@@]2(O)[C@H]3Cc4ccc(O)c5c4[C@@]2(CCN3CC2CC2)[C@H]1O5)c1cccc2cc(Cl)[nH]c12 [Compound 2, 17-Cyclopropylmethyl-3,14β-dihydroxy-4,5α-epoxy-6β-(2-chloro-indole-7-carboxamido)morphinan] gave a Ki of 2.42 ± 0.44 nM.
Molecule N#Cc1cc2cccc(C(=O)N[C@@H]3CC[C@@]4(O)[C@H]5Cc6ccc(O)c7c6[C@@]4(CCN5CC4CC4)[C@H]3O7)c2[nH]1 [Compound 3, 17-Cyclopropylmethyl-3,14β-dihydroxy-4,5α-epoxy-6β-(2-cyano-indole-7-carboxamido)morphinan] has a Ki of 12 ± 0.62 nM.
Cc1cc2cccc(C(=O)N[C@@H]3CC[C@@]4(O)[C@H]5Cc6ccc(O)c7c6[C@@]4(CCN5CC4CC4)[C@H]3O7)c2[nH]1 [Compound 4, 17-Cyclopropylmethyl-3,14β-dihydroxy-4,5α-epoxy-6β-(2-methyl-indole-7-carboxamido)morphinan] showed a Ki of 15.9 ± 0.38 nM.
In the case of O=C(N[C@@H]1CC[C@@]2(O)[C@H]3Cc4ccc(O)c5c4[C@@]2(CCN3CC2CC2)[C@H]1O5)c1cccc2cc(-c3ccccc3)[nH]c12 [Compound 5, 17-Cyclopropylmethyl-3,14β-dihydroxy-4,5α-epoxy-6β-(2-phenyl-indole-7-carboxamido)morphinan], the Ki is reported as 23.8 ± 3.96 nM.
O=C(N[C@@H]1CC[C@@]2(O)[C@H]3Cc4ccc(O)c5c4[C@@]2(CCN3CC2CC2)[C@H]1O5)c1cccc2c(Br)c[nH]c12 [Compound 6, 17-Cyclopropylmethyl-3,14β-dihydroxy-4,5α-epoxy-6β-(3-bromo-indole-7-carboxamido)morphinan] was tested, and the Ki was 11.6 ± 2.68 nM.
Work on N#Cc1c[nH]c2c(C(=O)N[C@@H]3CC[C@@]4(O)[C@H]5Cc6ccc(O)c7c6[C@@]4(CCN5CC4CC4)[C@H]3O7)cccc12 [Compound 8, 17-Cyclopropylmethyl-3,14β-dihydroxy-4,5α-epoxy-6β-(3-cyano-indole-7-carboxamido)morphinan] yielded a Ki of 25.4 ± 3.39 nM.
Molecule CC(=O)Nc1c[nH]c2c(C(=O)N[C@@H]3CC[C@@]4(O)[C@H]5Cc6ccc(O)c7c6[C@@]4(CCN5CC4CC4)[C@H]3O7)cccc12 [Compound 12, 17-Cyclopropylmethyl-3,14β-dihydroxy-4,5α-epoxy-6β-(3-acet-amido-indole-7-carboxamido)morphinan] has a Ki of 31 ± 4.96 nM.
CC(C)c1c[nH]c2c(C(=O)N[C@@H]3CC[C@@]4(O)[C@H]5Cc6ccc(O)c7c6[C@@]4(CCN5CC4CC4)[C@H]3O7)cccc12 [Compound 14, 17-Cyclopropylmethyl-3,14β-dihydroxy-4,5α-epoxy-6β-(3-iso-propyl-indole-7-carboxamido)morphinan] showed a Ki of 19.8 ± 2.72 nM.
For O=C(N[C@@H]1CC[C@@]2(O)[C@H]3Cc4ccc(O)c5c4[C@@]2(CCN3CC2CC2)[C@H]1O5)c1cccc2c(C3CCCCC3)c[nH]c12 [Compound 16, 17-Cyclopropylmethyl-3,14β-dihydroxy-4,5α-epoxy-6β-(3-cyclo-hexyl-indole-7-carboxamido)morphinan], the Ki was 64 ± 1.99 nM.
In the case of O=C(N[C@@H]1CC[C@@]2(O)[C@H]3Cc4ccc(O)c5c4[C@@]2(CCN3CC2CC2)[C@H]1O5)c1cccc2c(-c3ccccc3)c[nH]c12 [Compound 17, 17-Cyclopropylmethyl-3,14β-dihydroxy-4,5α-epoxy-6β-(3-phenyl-indole-7-carboxamido)morphinan], the Ki is reported as 49.3 ± 10.1 nM.
Work on O=C(N[C@H]1CC[C@@]2(O)[C@H]3Cc4ccc(O)c5c4[C@@]2(CCN3CC2CC2)[C@H]1O5)c1cccc2cc(Cl)[nH]c12 [Compound 19, 17-Cyclopropylmethyl-3,14β-dihydroxy-4,5α-epoxy-6α-(2-chloro-indole-7-carboxamido)morphinan] yielded a Ki of 1.82 ± 0.06 nM.
N#Cc1cc2cccc(C(=O)N[C@H]3CC[C@@]4(O)[C@H]5Cc6ccc(O)c7c6[C@@]4(CCN5CC4CC4)[C@H]3O7)c2[nH]1 [Compound 20, 17-Cyclopropylmethyl-3,14β-dihydroxy-4,5α-epoxy-6α-(2-cyano-indole-7-carboxamido)morphinan] was tested, and the Ki was 10.7 ± 0.93 nM.
O=C(N[C@H]1CC[C@@]2(O)[C@H]3Cc4ccc(O)c5c4[C@@]2(CCN3CC2CC2)[C@H]1O5)c1cccc2c(Br)c[nH]c12 [Compound 23, 17-Cyclopropylmethyl-3,14β-dihydroxy-4,5α-epoxy-6α-(3-bromo-indole-7-carboxamido)morphinan] was tested, and the Ki was 19.2 ± 3.99 nM.
For O=C(N[C@H]1CC[C@@]2(O)[C@H]3Cc4ccc(O)c5c4[C@@]2(CCN3CC2CC2)[C@H]1O5)c1cccc2c(Cl)c[nH]c12 [Compound 24, 17-Cyclopropylmethyl-3,14β-dihydroxy-4,5α-epoxy-6α-(3-chloro-indole-7-carboxamido)morphinan], the Ki was 37.1 ± 9.46 nM.
For O=Cc1c[nH]c2c(C(=O)N[C@H]3CC[C@@]4(O)[C@H]5Cc6ccc(O)c7c6[C@@]4(CCN5CC4CC4)[C@H]3O7)cccc12 [Compound 27, 17-Cyclopropylmethyl-3,14β-dihydroxy-4,5α-epoxy-6α-(3-formyl-indole-7-carboxamido)morphinan], the Ki was 11.9 ± 1.91 nM.
With CC(=O)Nc1c[nH]c2c(C(=O)N[C@H]3CC[C@@]4(O)[C@H]5Cc6ccc(O)c7c6[C@@]4(CCN5CC4CC4)[C@H]3O7)cccc12 [Compound 29, 17-Cyclopropylmethyl-3,14β-dihydroxy-4,5α-epoxy-6α-(3-acet-amido-indole-7-carboxamido)morphinan] the Ki was 5.19 ± 0.35 nM.
CC(C)c1c[nH]c2c(C(=O)N[C@H]3CC[C@@]4(O)[C@H]5Cc6ccc(O)c7c6[C@@]4(CCN5CC4CC4)[C@H]3O7)cccc12 [Compound 31, 17-Cyclopropylmethyl-3,14β-dihydroxy-4,5α-epoxy-6α-(3-iso-propyl-indole-7-carboxamido)morphinan] was tested, and the Ki was 25.9 ± 5.69 nM.
Work on O=C(N[C@H]1CC[C@@]2(O)[C@H]3Cc4ccc(O)c5c4[C@@]2(CCN3CC2CC2)[C@H]1O5)c1cccc2c(C3CCCC3)c[nH]c12 [Compound 32, 17-Cyclopropylmethyl-3,14β-dihydroxy-4,5α-epoxy-6α-(3-cyclo-pentyl-indole-7-carboxamido)morphinan] yielded a Ki of 28.2 ± 5.4 nM.
In the case of O=C(N[C@H]1CC[C@@]2(O)[C@H]3Cc4ccc(O)c5c4[C@@]2(CCN3CC2CC2)[C@H]1O5)c1cccc2c(C3CCCCC3)c[nH]c12 [Compound 33, 17-Cyclopropylmethyl-3,14β-dihydroxy-4,5α-epoxy-6α-(3-cyclo-hexyl-indole-7-carboxamido)morphinan], the Ki is reported as 18.6 ± 7.24 nM.
For O=C(N[C@H]1CC[C@@]2(O)[C@H]3Cc4ccc(O)c5c4[C@@]2(CCN3CC2CC2)[C@H]1O5)c1cccc2c(-c3ccccc3)c[nH]c12 [Compound 34, 17-Cyclopropylmethyl-3,14β-dihydroxy-4,5α-epoxy-6α-(3-phenyl-indole-7-carboxamido)morphinan], the Ki was 15 ± 2.71 nM.
